What is called microsomal CLint is the rate of metabolic loss divided by the concentration. What is called thermodynamic solubility is the concentration in solution at equilibrium with solid.

Values after ≈ are worked out from the molar mass of the structure shown.

The values below come from ChEMBL document CHEMBL1777674, “2,6-Disubstituted pyrazines and related analogs as NR2B site antagonists of the NMDA receptor with anti-depressant activity” (Bioorg Med Chem Lett, 2011).

A short description of data set [1]: Intrinsic clearance in human liver microsomes. The format is ADME, Microsome. In general terms: Liver microsomes are a subcellular fraction often used to study metabolism.
A short description of data set [2]: Equilibrium solubility of the compound at pH 7.4. The format is physicochemical. As to conditions: buffer.
Data set [3] is described as follows: Ratio of drug level in brain to plasma in mouse at 30 mg/kg, ip after 30 mins. Further details: dose 30 mg/kg, route intraperitoneal. The settings on record: read-out: BPR. The format is ADME, organism-based.
Data set [4] can be described thus: Plasma concentration in mouse at 30 mg/kg, ip after 30 mins. The format is ADME, organism-based. Further details: dose 30 mg/kg, route intraperitoneal.
Data set [5] in a line: Plasma concentration in mouse at 60 mg/kg, ip after 30 mins. The data set is classed as ADME, organism-based. Further details: dose 60 mg/kg, route intraperitoneal.
Data set [6] is described as follows: Plasma concentration in mouse at 10 mg/kg, ip after 30 mins. The format is ADME, organism-based. Further details: dose 10 mg/kg, route intraperitoneal.
Data set [7] is described as follows: Ratio of drug level in brain to plasma in mouse at 60 mg/kg, ip after 30 mins. The data set is classed as ADME, organism-based. More on the design: dose 60 mg/kg, route intraperitoneal. The settings on record: read-out: BPR.
Data set [8] is described as follows: Ratio of drug level in brain to plasma in mouse at 10 mg/kg, ip after 30 mins. The format is ADME, organism-based. Further details: dose 10 mg/kg, route intraperitoneal. The settings on record: read-out: BPR.

`COc1cc(F)ccc1-c1cncc(CNCC2CC2)n1` had a microsomal CLint in data set [1] of 108 µL/min/mg. For the same compound, the thermodynamic solubility in data set [2] is 340 µM (≈ 97.7 µg/mL).
As to `COc1cc(F)ccc1-c1cncc(CNC2CCCC2)c1`, the Kp at 0.5 h was 13.6 in data set [3], 12.6 in data set [7] and 10.9 in data set [8]. Also, the concentration at 0.5 h in data set [4] came to 2320 nM; in data set [5] it was 3.37 µM; in data set [6] it was 867 nM. Besides, in data set [1], the microsomal CLint is 74 µL/min/mg. The compound also yielded a solubility (thermodynamic) in data set [2] of more than 450 µM.
In data set [1], `COc1cc(F)ccc1-c1cncc(CNC(=O)c2cnccn2)c1` had a microsomal CLint of 64 µL/min/mg. The same compound came in with a thermodynamic solubility in data set [2] of 63 µM (≈ 21.3 µg/mL).
`COc1cc(F)ccc1-c1cncc(CNC(=O)c2ccccn2)c1` yielded a microsomal CLint in data set [1] of 45 µL/min/mg.
In data set [1], `C[C@@H]([C@@H](O)c1ccc(O)cc1)N1CCC(O)(c2ccccc2)CC1` [TRAXOPRODIL] had a microsomal CLint of 37 µL/min/mg. For the same compound, in data set [2], the thermodynamic solubility was more than 470 µM.
